The values that follow come from patent US20090311217A1, “3-SUBSTITUTED-1H-INDOLE COMPOUNDS, THEIR USE AS MTOR KINASE AND PI3 KINASE INHIBITORS, AND THEIR SYNTHESES” (priority 2008, published 2009).

In assay [1] the target is T1, human TOR (Homo sapiens, UniProt P42345).
T1 construct: FLAG
Kind of assay: mTOR enzyme assay (DELFIA, His6-S6K substrate). It is filed as biochemical.

For assay [2], the target named is PI3K-alpha (Homo sapiens, UniProt P42336). Kind of assay: PI3K-alpha fluorescence polarization assay. The assay is classed as biochemical.
[3] abbreviates: read-out: mTOR Kinase Avg. IC50.

Where two headings read alike, the source gives them in different places.

Sequence of PI3K-alpha (P42336 whole entry, species assumed): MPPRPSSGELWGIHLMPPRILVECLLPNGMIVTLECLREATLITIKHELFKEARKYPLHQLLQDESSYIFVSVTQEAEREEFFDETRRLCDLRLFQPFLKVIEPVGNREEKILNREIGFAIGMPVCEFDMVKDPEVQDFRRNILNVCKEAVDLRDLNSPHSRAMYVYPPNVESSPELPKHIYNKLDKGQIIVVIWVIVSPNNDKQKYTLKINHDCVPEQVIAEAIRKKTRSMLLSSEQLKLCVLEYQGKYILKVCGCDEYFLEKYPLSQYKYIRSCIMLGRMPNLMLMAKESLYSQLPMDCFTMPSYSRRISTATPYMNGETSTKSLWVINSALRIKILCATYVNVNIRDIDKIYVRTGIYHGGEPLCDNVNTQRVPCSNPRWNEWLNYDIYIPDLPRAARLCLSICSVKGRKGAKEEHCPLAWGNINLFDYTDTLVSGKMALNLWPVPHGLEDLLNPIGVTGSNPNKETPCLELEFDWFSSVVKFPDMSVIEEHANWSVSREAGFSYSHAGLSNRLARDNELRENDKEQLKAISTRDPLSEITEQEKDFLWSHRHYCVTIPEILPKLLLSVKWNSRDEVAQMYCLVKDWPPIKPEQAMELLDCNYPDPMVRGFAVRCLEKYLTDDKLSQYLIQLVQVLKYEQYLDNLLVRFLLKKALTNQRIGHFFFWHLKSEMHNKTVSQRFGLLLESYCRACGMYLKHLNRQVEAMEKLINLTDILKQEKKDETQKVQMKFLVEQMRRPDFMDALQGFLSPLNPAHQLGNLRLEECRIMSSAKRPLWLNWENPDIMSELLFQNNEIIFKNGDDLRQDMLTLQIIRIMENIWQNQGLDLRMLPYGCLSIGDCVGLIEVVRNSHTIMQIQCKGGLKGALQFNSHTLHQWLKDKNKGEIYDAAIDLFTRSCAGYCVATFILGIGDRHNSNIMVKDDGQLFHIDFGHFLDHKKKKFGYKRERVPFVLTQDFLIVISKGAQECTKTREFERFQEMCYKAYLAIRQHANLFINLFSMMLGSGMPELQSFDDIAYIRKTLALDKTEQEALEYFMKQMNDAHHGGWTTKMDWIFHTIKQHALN
Sequence of PI3K-alpha (P27986 whole entry partner, species assumed): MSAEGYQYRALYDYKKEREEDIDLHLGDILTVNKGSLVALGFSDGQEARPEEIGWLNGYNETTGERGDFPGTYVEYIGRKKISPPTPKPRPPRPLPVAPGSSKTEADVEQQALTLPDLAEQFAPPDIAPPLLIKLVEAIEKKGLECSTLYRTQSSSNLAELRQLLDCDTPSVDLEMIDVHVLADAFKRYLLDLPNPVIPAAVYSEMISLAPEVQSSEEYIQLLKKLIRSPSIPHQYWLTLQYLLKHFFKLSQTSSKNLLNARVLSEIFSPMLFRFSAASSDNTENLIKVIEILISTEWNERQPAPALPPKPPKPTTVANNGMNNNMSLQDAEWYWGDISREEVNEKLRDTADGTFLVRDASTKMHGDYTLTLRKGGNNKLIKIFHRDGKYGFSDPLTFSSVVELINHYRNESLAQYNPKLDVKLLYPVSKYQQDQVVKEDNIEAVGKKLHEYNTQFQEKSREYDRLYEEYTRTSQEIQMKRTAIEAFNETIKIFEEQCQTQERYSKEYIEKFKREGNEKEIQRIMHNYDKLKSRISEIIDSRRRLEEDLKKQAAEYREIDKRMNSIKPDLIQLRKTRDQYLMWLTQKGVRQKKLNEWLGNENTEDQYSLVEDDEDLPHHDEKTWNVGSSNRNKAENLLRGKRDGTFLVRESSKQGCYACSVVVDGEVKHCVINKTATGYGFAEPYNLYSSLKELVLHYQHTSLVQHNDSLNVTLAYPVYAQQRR

With `COc1ccc(-c2c(C=C3Oc4cc(O)cc(O)c4C3=O)c3ccccc3n2C)cc1` [Example 195, 4,6-dihydroxy-2-{[2-(4-methoxyphenyl)-1-methyl-1H-indol-3-yl]methylene}-1-benzofuran-3(2H)-one], the IC50 in assay [1] (setting [3]) amounted to 380 nM; in assay [2] (read-out: PI3Kα Avg. IC50) it was 1030 nM.
The like results for `COC(=O)c1cccc2[nH]cc(C=C3Oc4cc(O)cc(O)c4C3=O)c12` [Example 222, methyl 3-[(4,6-dihydroxy-3-oxo-1-benzofuran-2(3H)-ylidene)methyl]-1H-indole-4-carboxylate] were, in that order, 2100 nM and 4460 nM.
The like results for `COc1cccc2c(C=C3Oc4cc(O)cc(O)c4C3=O)cn(C)c12` [Example 251, 4,6-dihydroxy-2-[(7-methoxy-1-methyl-1H-indol-3-yl)methylene]-1-benzofuran-3(2H)-one] were, in that order, over 20000 nM and 2390 nM.
In the same order, the values of `Cc1ccc2c(/C=C3\Oc4cc(O)cc(O)c4C3=O)c[nH]c2c1` [Example 48, (2Z)-4,6-dihydroxy-2-[(6-methyl-1H-indol-3-yl)methylene]-1-benzofuran-3(2H)-one] are over 5000 nM and 3420 nM.
On to `O=C1C(=Cc2c(-c3ccccc3)[nH]c3ccccc23)Oc2cc(O)ccc21` [Example 6, 6-hydroxy-2-[(2-phenyl-1H-indol-3-yl)methylene]-1-benzofuran-3(2H)-one], for which the IC50 in assay [1] (setting [3]) was determined as 2850 nM; in assay [2] (read-out: PI3Kα Avg. IC50) it was 2400 nM.
`O=C1C(=Cc2c[nH]c3ccccc23)Oc2cc(O)cc(O)c21` [Example 13, 4,6-dihydroxy-2-(1H-indol-3-ylmethylene)-1-benzofuran-3(2H)-one]: the values for the IC50 in assay [1] (mTOR Kinase Avg. IC50) and in assay [2] (PI3Kα Avg. IC50) were 9200 nM and 6750 nM, respectively.
For the compound `O=C1C(=Cc2c[nH]c3cc(F)ccc23)Oc2cc(O)cc(O)c21` [Example 176, 2-[(6-fluoro-1H-indol-3-yl)methylene]-4,6-dihydroxy-1-benzofuran-3(2H)-one], the results for the concentration for half-maximal inhibition (IC50) in assay [1] (setting [3]) and in assay [2] (read-out: PI3Kα Avg. IC50) were 8700 nM and 1550 nM, respectively.
The like results for `Cn1cc(C=C2Oc3cc(O)cc(O)c3C2=O)c2c(OCc3ccccc3)cccc21` [Example 256, 2-{[4-(benzyloxy)-1-methyl-1H-indol-3-yl]methylene}-4,6-dihydroxy-1-benzofuran-3(2H)-one] were, in that order, 280 nM and over 10000 nM.
Consider `O=C1C(=Cc2c(-c3ccccn3)[nH]c3ccccc23)Oc2cc(O)cc(O)c21` [Example 72, 4,6-dihydroxy-2-[(2-pyridin-2-yl-1H-indol-3-yl)methylene]-1-benzofuran-3(2H)-one], for which the IC50 stood at 21.2 nM in assay [1] (mTOR Kinase Avg. IC50) and 3650 nM in assay [2] (PI3Kα Avg. IC50).
Take `O=C(Nc1ccc2[nH]cc(C=C3Oc4cc(O)cc(O)c4C3=O)c2c1)c1ccco1` [Example 183, N-{3-[(4,6-dihydroxy-3-oxo-1-benzofuran-2(3H)-ylidene)methyl]-1H-indol-5-yl}-2-furamide]: the IC50 in assay [1] (setting [3]) was 6100 nM; in assay [2] (read-out: PI3Kα Avg. IC50), 1200 nM.
For the compound `O=C1C(=Cc2c[nH]c3ccc(Br)cc23)Oc2cccc(O)c21` [Example 77, 2-[(5-bromo-1H-indol-3-yl)methylene]-4-hydroxy-1-benzofuran-3(2H)-one], the half-inhibitory concentration (IC50) in assay [1] (setting [3]) was 17500 nM; in assay [2] (read-out: PI3Kα Avg. IC50) it was over 10000 nM.
For the compound `O=C1/C(=C/c2cn(Cc3ccccc3)c3ccccc23)Oc2cc(O)cc(O)c21` [Example 51, (2Z)-2-[(1-benzyl-1H-indol-3-yl)methylene]-4,6-dihydroxy-1-benzofuran-3(2H)-one], the IC50 in assay [1] (setting [3]) is over 5000 nM; in assay [2] (read-out: PI3Kα Avg. IC50), over 10000 nM.
On to `Cc1[nH]c2c(Br)cccc2c1C=C1Oc2cc(O)cc(O)c2C1=O` [Example 217, 2-[(7-bromo-2-methyl-1H-indol-3-yl)methylene]-4,6-dihydroxy-1-benzofuran-3(2H)-one], for which the IC50 worked out at 2400 nM in assay [1] (setting [3]) and 1420 nM in assay [2] (read-out: PI3Kα Avg. IC50).
As to `N#CCCCn1cc(C=C2Oc3cc(O)cc(O)c3C2=O)c2c(C#N)cccc21` [Example 264, 1-(3-cyanopropyl)-3-[(4,6-dihydroxy-3-oxo-1-benzofuran-2(3H)-ylidene)methyl]-1H-indole-4-carbonitrile], the values for the IC50 in assay [1] (setting [3]) and in assay [2] (read-out: PI3Kα Avg. IC50) were 1700 nM and 3930 nM, respectively.
As for `Cc1c(C=C2Oc3cc(O)cc(O)c3C2=O)c2cccc(Br)c2n1C` [Example 234, 2-[(7-bromo-1,2-dimethyl-1H-indol-3-yl)methylene]-4,6-dihydroxy-1-benzofuran-3(2H)-one], the IC50 is 14000 nM in assay [1] (setting [3]) and over 10000 nM in assay [2] (read-out: PI3Kα Avg. IC50).
For the compound `CN(C)CCn1cc(C=C2Oc3cc(O)cc(O)c3C2=O)c2c(C#N)cccc21` [Example 265, 3-[(4,6-dihydroxy-3-oxo-1-benzofuran-2(3H)-ylidene)methyl]-1-[2-(dimethylamino)ethyl]-1H-indole-4-carbonitrile], the half-inhibitory concentration (IC50) was 1300 nM in assay [1] (setting [3]) and over 10000 nM in assay [2] (read-out: PI3Kα Avg. IC50).
In the same order, the values of `O=C1/C(=C/c2c[nH]c3ccc(Cl)cc23)Oc2c1ccc(O)c2O` [Example 63, (2Z)-2-[(5-chloro-1H-indol-3-yl)methylene]-6,7-dihydroxy-1-benzofuran-3(2H)-one] are over 20000 nM and 431 nM.
The like results for `O=C1C(=Cc2c(-c3ccccc3)n(Cc3cccnc3)c3ccccc23)Oc2cc(O)cc(O)c21` [Example 153, 4,6-dihydroxy-2-{[2-phenyl-1-(pyridin-3-ylmethyl)-1H-indol-3-yl]methylene}-1-benzofuran-3(2H)-one] were, in that order, 2900 nM and 1580 nM.
The like results for `CS(=O)(=O)c1ccc2c(C=C3Oc4cc(O)cc(O)c4C3=O)c[nH]c2c1` [Example 169, 4,6-dihydroxy-2-{[6-(methylsulfonyl)-1H-indol-3-yl]methylene}-1-benzofuran-3(2H)-one] were, in that order, 9100 nM and 3590 nM.
`O=C1C(=Cc2c(Br)[nH]c3ccccc23)Oc2c1ccc(O)c2O` [Example 81, 2-[(2-bromo-1H-indol-3-yl)methylene]-6,7-dihydroxy-1-benzofuran-3(2H)-one]: the values for the IC50 in assay [1] (setting [3]) and in assay [2] (read-out: PI3Kα Avg. IC50) were over 20000 nM and 234 nM, respectively.
Turning to `O=C1C(=Cc2c[nH]c3ccccc23)Oc2cccc(O)c21` [Example 74, 4-hydroxy-2-(1H-indol-3-ylmethylene)-1-benzofuran-3(2H)-one], the IC50 came to 9800 nM in assay [1] (setting [3]) and 12000 nM in assay [2] (read-out: PI3Kα Avg. IC50).
Consider `COc1ccc2c(c(C=C3Oc4cc(O)cc(O)c4C3=O)cn2C)c1C` [Example 236, 4,6-dihydroxy-2-[(5-methoxy-1,4-dimethyl-1H-indol-3-yl)methylene]-1-benzofuran-3(2H)-one], for which the IC50 in assay [1] (setting [3]) was 1600 nM; in assay [2] (read-out: PI3Kα Avg. IC50), 1470 nM.
The like results for `CN(C)c1ccc(-c2[nH]c3ccccc3c2C=C2Oc3cc(O)cc(O)c3C2=O)cc1` [Example 211, 2-({2-[4-(dimethylamino)phenyl]-1H-indol-3-yl}methylene)-4,6-dihydroxy-1-benzofuran-3(2H)-one] were, in that order, 590 nM and 1060 nM.
In the same order, the values of `N#Cc1ccc2c(C=C3Oc4cc(O)cc(O)c4C3=O)c[nH]c2c1` [Example 167, 3-[(4,6-dihydroxy-3-oxo-1-benzofuran-2(3H)-ylidene)methyl]-1H-indole-6-carbonitrile] are 5300 nM and 6760 nM.
`Cn1c(-c2ccccc2)c(C=C2Oc3cc(O)cc(O)c3C2=O)c2ccccc21` [Example 15, 4,6-dihydroxy-2-[(1-methyl-2-phenyl-1H-indol-3-yl)methylene]-1-benzofuran-3(2H)-one]: the IC50 was determined as 90 nM in assay [1] (setting [3]) and 2660 nM in assay [2] (PI3Kα Avg. IC50).
As to `Cn1cc(C=C2Oc3cc(O)cc(O)c3C2=O)c2ccc(C(F)(F)F)cc21` [Example 237, 4,6-dihydroxy-2-{[1-methyl-6-(trifluoromethyl)-1H-indol-3-yl]methylene}-1-benzofuran-3(2H)-one], the IC50 in assay [1] (setting [3]) was over 20000 nM; in assay [2] (read-out: PI3Kα Avg. IC50) it was 2480 nM.
For the compound `Cc1[nH]c2ccccc2c1/C=C1\Oc2cc(O)cc(O)c2C1=O` [Example 47, (2Z)-4,6-dihydroxy-2-[(2-methyl-1H-indol-3-yl)methylene]-1-benzofuran-3(2H)-one], the IC50 is 500 nM in assay [1] (setting [3]) and 3200 nM in assay [2] (PI3Kα Avg. IC50).
For the compound `COC(=O)c1cccc2c1c(C=C1Oc3cc(O)cc(O)c3C1=O)cn2C` [Example 267, methyl 3-[(4,6-dihydroxy-3-oxo-1-benzofuran-2(3H)-ylidene)methyl]-1-methyl-1H-indole-4-carboxylate], the IC50 in assay [1] (setting [3]) was determined as 86 nM; in assay [2] (read-out: PI3Kα Avg. IC50), 2060 nM.
In the same order, the values of `Cc1c(C=C2Oc3cc(O)cc(O)c3C2=O)c2ccccc2n1CCCl` [Example 92, 2-{[1-(2-chloroethyl)-2-methyl-1H-indol-3-yl]methylene}-4,6-dihydroxy-1-benzofuran-3(2H)-one] are 2600 nM and 2040 nM.
In the same order, the values of `Cc1[nH]c2ccc(F)cc2c1C=C1Oc2cc(O)cc(O)c2C1=O` [Example 218, 2-[(5-fluoro-2-methyl-1H-indol-3-yl)methylene]-4,6-dihydroxy-1-benzofuran-3(2H)-one] are 1650 nM and 796 nM.
The like results for `O=C1/C(=C/c2c(-c3ccc4ccccc4c3)[nH]c3ccccc23)Sc2ccc(Cl)cc21` [Example 285, (2Z)-5-chloro-2-{[2-(2-naphthyl)-1H-indol-3-yl]methylene}-1-benzothiophen-3(2H)-one] were, in that order, over 20000 nM and over 10000 nM.
On to `COc1cccc(-c2c(C=C3Oc4cc(O)cc(O)c4C3=O)c3ccccc3n2C)c1` [Example 196, 4,6-dihydroxy-2-{[2-(3-methoxyphenyl)-1-methyl-1H-indol-3-yl]methylene}-1-benzofuran-3(2H)-one], for which the IC50 was 390 nM in assay [1] (setting [3]) and 1690 nM in assay [2] (read-out: PI3Kα Avg. IC50).
In the same order, the values of `O=C1C(=Cc2c(-c3ccccc3)n(CCN3CCNCC3)c3ccccc23)Oc2cc(O)cc(O)c21` [Example 160, 4,6-dihydroxy-2-{[2-phenyl-1-(2-piperazin-1-ylethyl)-1H-indol-3-yl]methylene}-1-benzofuran-3(2H)-one] are 820 nM and 1010 nM.

In general, IC50 refers to the concentration at which inhibition is half-maximal.
